≈ marks a conversion by molar mass, not a printed value.
Columns and labels:
[1] = test system: HepG2 hepatocellular carcinoma cells; conditions: 100 µM, incubation time: 4 days; cited from earlier work
[2] = test system: S. aureus, B. cereus, M. flavus, P. aeruginosa, E. coli, and E. cloacae; conditions: all mentioned strains; cited from earlier work
[3] = test system: E. coli, P. aeruginosa, S. aureus, B. subtilis, S. enteritidis, and C. albicans; assay: MIC, stated for all tested strains together; type: cell-based; conditions: all of the tested strains
Description: The following bacterial strains were used in this study: Escherichia coli (PCM 2857), Pseudomonas aeruginosa (PCM 2720), Bacillus subtilis (PCM 2850), Staphylococcus aureus (PCM 2267), Salmonella enteritidis (NCTC 4776), and Candida albicans (PCM 2566-FY). The microbial strains were bought from the Polish Collection of Microorganisms (Wroclaw, Poland) or the American Type Culture Collection. Bacteria (0.1 mL of the reconstituted suspension) were seeded onto sterile Mueller–Hinton agar plates (Biomaxima), to which previously suitable amounts of the tested compounds were added to give the desired concentration.
The MIC (minimal inhibitory concentration) was determined by serial dilution of the tested compound in an agar medium, to which the appropriate inoculum of microorganisms was then added and incubated. Escherichia coli, Pseudomonas aeruginosa, Staphylococcus aureus, Bacillus subtilis, Salmonella enteritidis, and Candida albicans were grown overnight and then resuspended in physiological saline to an optical density at 600 nm (OD = 600) of 0.60, corresponding to 5.0 × 10^8 CFU/mL. Bacteria (0.1 mL of the reconstituted suspension) were seeded onto sterile Mueller–Hinton agar plates, to which previously suitable amounts of the tested compounds were added to reach the desired concentration. Tested chemicals were dissolved in DMSO solution. Negative controls were agar plates, to which DMSO was added, while positive controls were plates with gentamycin (in the case of bacteria) or flucanozole (in the case of fungi). The plates were incubated at 37 °C for 24 h. The lowest concentration without visible bacterial growth was determined as the MIC.

[4] = test system: E. coli, B. aureus, and L. monocytogenes; parameters: method as in doi:10.17221/132/2010-CJFS; conditions: ref 90; cited from earlier work
[5] = test system: Botrytis cinerea and Rhizopus stolonifer; conditions: concentration of 5 mM; cited from earlier work
[6] = test system: monocytes treated with hydrogen peroxide; conditions: 200 μM; cited from earlier work
A. flavus = conditions: concentration of 30 mg/mL; cited from earlier work
A. niger = conditions: concentration of 30 mg/mL; cited from earlier work
Chrysosporium species = conditions: concentration of 30 mg/mL; cited from earlier work
A. fumigatus = conditions: concentration of 30 mg/mL; cited from earlier work
MDA-MB-231 cells = test system: MDA-MB-231 cells; parameters: method as in PMID 30211078; conditions: in 24 h; read-out: IC50, growth of MDA-MB-231 cells; cited from earlier work
MCF-7 = conditions: incubation time: 24 h, cited from earlier work
A2780 cancer cells = conditions: incubation time: two days; cited from earlier work

O=C(O)c1ccc(O)c(O)c1 [3,4-DHB, 3,4-dihydroxybenzoic acid]
HepG2 cells' viability [1]: 40% | MIC [2]: 3000 µg/mL (≈ 19.5 mM) | MIC [3]: 2000 µg/mL (≈ 13 mM)

O=C(O)c1cc(O)ccc1O [2,5-DHB, 2,5-dihydroxybenzoic acid]
MIC [4]: 2500 µM (≈ 385 µg/mL) | inhibition of spore germination and mycelial growth [5]: completely inhibited

O=C(O)c1cccc(O)c1O [2,3-DHB, 2,3-Dihydroxybenzoic acid]
cell survival [6]: 50% | zone of inhibition (A. flavus): 24 mm | zone of inhibition (A. niger): 22 mm | zone of inhibition (Chrysosporium species): 25 mm | zone of inhibition (A. fumigatus): 30 mm | MIC [3]: 5000 µg/mL (≈ 32.4 mM)

O=C(O)c1cc(O)c(O)c(O)c1 [3,4,5-THB, 3,4,5-trihydroxybenzoic acid]
IC50 (MDA-MB-231 cells): ~150 µM | cell proliferation of MCF-7, % of control (MCF-7; 5 μg/mL): 42.73 % of control | concentration inhibiting 50% of MCF-7 cancer cells (MCF-7): 7.5 µg/mL | IC50, A2780 cancer cells (A2780 cancer cells): 45.25 µg/mL (≈ 0.266 mM)
